{
  "source": "patent US20190365771A1",
  "about": "“APILIMOD COMPOSITIONS AND METHODS FOR USING SAME IN THE TREATMENT OF ALZHEIMER'S DISEASE” (AI Therapeutics, Inc., priority 2016, published 2019)",
  "key": {"[1]": {"test_system": "Hela cells transiently transfected with C99 APP truncated mutant (C99)", "experiment": "Ab 40 ELISA of supernatants of Hela cells transfected with C99 construct", "format": "cell-based, human", "settings": "treated two days with 10000, 1000, 100, 1 nM, FIG. 2", "excerpt": "(§1) The Amyloid precursor protein (APP) can be processed by proteases, first by beta secretase (BACE1) then followed by gamma secretase to generate peptide fragments including sizes of 40 and 42 amino acids named abeta (Ab), e.g. Ab 1-40 and Ab 1-42. Several familial Alzheimer disease-related mutations and truncated mutants in the APP gene have been described in the investigation of APP processing to Ab in vitro and in vivo. […] Briefly, two constructs were used to generate Ab:(1) APP Swedish/Indiana double mutant (APPSw-I) in the 695 amino acid APP construct combines the Swedish mutant APP K670N, M671L (Mullan M et al, A pathogenic mutation for probable Alzheimer's disease in the APP gene at the N-terminus of beta-amyloid. Nat Genet., 1992 August; 1(5):345-7) and the Indiana mutation APP V717F (Suzuki N et al, An increased percentage of long amyloid beta protein secreted by familial amyloid beta protein precursor (beta APP717) mutants. Science, 1994 May 27; 264(5163): 1336-40); and (2) C99 APP truncated mutant (C99) fragment encoding the last 99-aa of APP 695, this construct mimics the BACE1 cleaved APP at the major Asp+1 site of Aβ to generate C99. […]"}, "[2]": {"test_system": "Hela cells transiently transfected with APP Swedish/Indiana double mutant (APPSw-I)", "experiment": "Ab 40 ELISA of supernatants of Hela cells transfected with APPSw-I construct", "format": "cell-based, human", "settings": "treated two days with 10000, 1000, 100, 1 nM, FIG. 1", "excerpt": "as §1"}},
  "data": [
    {"compound": "Cc1cccc(/C=N/Nc2cc(N3CCOCC3)nc(OCCc3ccccn3)n2)c1", "note": "[apilimod]", "values": [
      {"measurement": "Ab concentration in cell culture supernatant", "setting": "[1]", "value": "dose dependent decrease of Ab"},
      {"measurement": "Ab concentration in cell culture supernatant", "setting": "[2]", "value": "dose dependent decrease of Ab"}
    ]}
  ]
}
